Results from ChEMBL document CHEMBL1201862, “PubChem BioAssay data set” (2004).
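Following 48 hours of exposure in 96-well plates, responses at five concentrations were used to interpolate endpoints linearly. The concentration for 50% growth inhibition is given as GI50.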 Active and inactive are the calls of the source. Rule as the data show it: active = GI50 up to about 1.1 µM and inactive = higher.

How the values were obtained:
Assay in all cases: DTP human tumour cell line panel, 48 h
HCC 2998 = test system: HCC 2998
SF-295 = test system: SF-295
SK-OV-3 = test system: SK-OV-3
Malme-3M = test system: Malme-3M
SF-539 = test system: SF-539
SK-MEL-2 = test system: SK-MEL-2
SK-MEL-28 = test system: SK-MEL-28
SK-MEL-5 = test system: SK-MEL-5
A549 = test system: A549
UACC-62 = test system: UACC-62
NCI-H226 = test system: NCI-H226
MOLT-4 = test system: MOLT-4
UACC-257 = test system: UACC-257
EKVX = test system: EKVX
786-0 = test system: 786-0
HCT-15 = test system: HCT-15
SR = test system: SR
RPMI-8226 = test system: RPMI-8226

| SMILES | GI50 (HCC 2998) | GI50 (SF-295) | GI50 (SK-OV-3) | GI50 (Malme-3M) | GI50 (SF-539) | GI50 (SK-MEL-2) | GI50 (SK-MEL-28) | GI50 (SK-MEL-5) | GI50 (A549) | GI50 (UACC-62) | GI50 (NCI-H226) | GI50 (MOLT-4) | GI50 (UACC-257) | GI50 (EKVX) | GI50 (786-0) | GI50 (HCT-15) [µM] | GI50 (SR) | GI50 (RPMI-8226) |
| --- | --- | --- | --- | --- | --- | --- | --- | --- | --- | --- | --- | --- | --- | --- | --- | --- | --- | --- |
| Cc1cccc(NC(=O)CSc2nnc(Cc3ccccc3)o2)c1 | > 100 µM (inactive) | > 100 µM (inactive) | > 100 µM (inactive) | > 100 µM (inactive) | > 100 µM (inactive) | > 100 µM (inactive) | > 100 µM (inactive) | > 100 µM (inactive) | > 100 µM (inactive) | > 100 µM (inactive) | > 100 µM (inactive) | > 100 µM (inactive) | > 100 µM (inactive) | > 100 µM (inactive) | > 100 µM (inactive) | > 100 |  |  |
| Cc1c(C2Cc3ccccc3N2)c2ccccc2n1C (stereo unspecified) | > 100 µM (inactive) | > 100 µM (inactive) | > 100 µM (inactive) | > 100 µM (inactive) | > 100 µM (inactive) | > 100 µM (inactive) |  | > 100 µM (inactive) | > 100 µM (inactive) | > 100 µM (inactive) | > 100 µM (inactive) | > 100 µM (inactive) | > 100 µM (inactive) | > 100 µM (inactive) | > 100 µM (inactive) | 36.3 | > 100 µM (inactive) |  |
| CC1C=C(OC(=O)c2ccccc2)C(=O)C(n2cc(F)c(=O)[nH]c2=O)O1 (stereo unspecified) | 5.56 µM (inactive) | > 100 µM (inactive) | > 100 µM (inactive) | 51.2 µM (inactive) | 13.9 µM (inactive) | 79.3 µM (inactive) | 53.1 µM (inactive) | 91 µM (inactive) | 38.2 µM (inactive) | 79.4 µM (inactive) | > 100 µM (inactive) | 51.5 µM (inactive) | > 100 µM (inactive) | > 100 µM (inactive) | 69.8 µM (inactive) | 50.6 |  | 23.9 µM (inactive) |
| O=C1CCC(=O)N2CCCCN12 | > 100 µM (inactive) | > 100 µM (inactive) | > 100 µM (inactive) | > 100 µM (inactive) | > 100 µM (inactive) | > 100 µM (inactive) | > 100 µM (inactive) | > 100 µM (inactive) | > 100 µM (inactive) | > 100 µM (inactive) | > 100 µM (inactive) | > 100 µM (inactive) | > 100 µM (inactive) | > 100 µM (inactive) | > 100 µM (inactive) | > 100 |  |  |
| CC(=O)O[C@H]1CC[C@@]2(C)C(=CC[C@H]3C(CC#N)[C@@](C)(C#N)CCC32)C1 (stereo partly specified) | > 100 µM (inactive) | > 100 µM (inactive) | > 100 µM (inactive) | > 100 µM (inactive) | > 100 µM (inactive) | > 100 µM (inactive) | > 100 µM (inactive) | > 100 µM (inactive) | > 100 µM (inactive) | > 100 µM (inactive) | > 100 µM (inactive) | > 100 µM (inactive) | > 100 µM (inactive) | > 100 µM (inactive) | > 100 µM (inactive) | > 100 |  | > 100 µM (inactive) |
| O=[N+]([O-])C(=C1c2ccccc2-c2ccccc21)[N+](=O)[O-] | 70.5 µM (inactive) | > 10 µM (inactive) |  |  | > 100 µM (inactive) | > 100 µM (inactive) | > 100 µM (inactive) |  | 38.5 µM (inactive) | 49.3 µM (inactive) | 69.2 µM (inactive) | 32.6 µM (inactive) | 52.8 µM (inactive) | > 100 µM (inactive) | > 100 µM (inactive) | > 10 | > 100 µM (inactive) | 44 µM (inactive) |
| N#CCCN(c1ccc(/C=C2\N=C(c3ccc(Cl)cc3)OC2=O)cc1)S(=O)(=O)c1ccccc1 | > 100 µM (inactive) | > 100 µM (inactive) | > 100 µM (inactive) |  | > 100 µM (inactive) | > 100 µM (inactive) | > 100 µM (inactive) | > 100 µM (inactive) | > 100 µM (inactive) | > 100 µM (inactive) | 96.2 µM (inactive) | > 100 µM (inactive) | > 100 µM (inactive) | > 100 µM (inactive) | > 100 µM (inactive) | > 100 | > 100 µM (inactive) | > 100 µM (inactive) |
| Cc1cccc(C(C)(C)C)c1NC(=O)CCc1n[nH]c(=S)o1 | > 100 µM (inactive) | > 100 µM (inactive) | > 100 µM (inactive) | > 100 µM (inactive) | > 100 µM (inactive) |  | > 100 µM (inactive) | > 100 µM (inactive) | > 100 µM (inactive) | > 100 µM (inactive) | 0.3 µM (active) | > 100 µM (inactive) | > 100 µM (inactive) | > 100 µM (inactive) | > 100 µM (inactive) | 21.7 |  | 22.8 µM (inactive) |
| CN(CCCN1C(=O)c2cccc3cc([N+](=O)[O-])cc(c23)C1=O)CCN(C)CCCN1C(=O)c2cccc3cc([N+](=O)[O-])cc(c23)C1=O | 21.2 µM (inactive) | 22.3 µM (inactive) | > 39.3 µM (inactive) | 25.9 µM (inactive) | 29.7 µM (inactive) | 13.3 µM (inactive) | 25.5 µM (inactive) | 17.4 µM (inactive) | 19.2 µM (inactive) | 17 µM (inactive) | > 39.3 µM (inactive) | 1.51 µM (inactive) | > 39.3 µM (inactive) | > 39.3 µM (inactive) | 13.6 µM (inactive) | 32.6 |  | 2.23 µM (inactive) |
| CS(=O)(=O)Oc1cccc(/C=N/N=C(\N)NO)c1 | 20.6 µM (inactive) | 49.3 µM (inactive) | 27 µM (inactive) | 23.1 µM (inactive) | 28.6 µM (inactive) | 34.8 µM (inactive) | > 100 µM (inactive) |  | 21.8 µM (inactive) | 4.84 µM (inactive) | 23.3 µM (inactive) |  | 38.8 µM (inactive) | 34 µM (inactive) | 19.3 µM (inactive) | 35.1 | 27.4 µM (inactive) |  |
| CCOC(=O)C12CCCC1(O)N(NC(=O)OC(C)(C)C)C(C)=C2C(=O)OC (stereo unspecified) | > 100 µM (inactive) | > 100 µM (inactive) | > 100 µM (inactive) | > 100 µM (inactive) | > 100 µM (inactive) | > 100 µM (inactive) | > 10 µM (inactive) |  | > 100 µM (inactive) | > 100 µM (inactive) | > 100 µM (inactive) | > 100 µM (inactive) | > 100 µM (inactive) | > 100 µM (inactive) | > 100 µM (inactive) | > 100 |  | > 100 µM (inactive) |
| O=C1NC2OC(CO)C(O)C(O1)C2O (stereo unspecified) |  | > 100 µM (inactive) | > 100 µM (inactive) | > 100 µM (inactive) | > 100 µM (inactive) | > 100 µM (inactive) | > 100 µM (inactive) | > 100 µM (inactive) |  | > 100 µM (inactive) | > 100 µM (inactive) | > 100 µM (inactive) | > 100 µM (inactive) | > 100 µM (inactive) | > 100 µM (inactive) | > 100 | > 100 µM (inactive) | > 100 µM (inactive) |
| c1ccc2c(c1)Cc1c(Cc3csc4ccccc34)ccc3cccc-2c13 | > 100 µM (inactive) | > 100 µM (inactive) |  | > 100 µM (inactive) | > 100 µM (inactive) | > 100 µM (inactive) | > 100 µM (inactive) | > 100 µM (inactive) | > 100 µM (inactive) | > 100 µM (inactive) |  | > 100 µM (inactive) | > 100 µM (inactive) | > 100 µM (inactive) | > 100 µM (inactive) | > 100 |  | > 100 µM (inactive) |
| O=C(Cc1nc2ccccc2s1)C(=O)Nc1ccc(Cl)cc1 | > 100 µM (inactive) | > 100 µM (inactive) | > 100 µM (inactive) | > 100 µM (inactive) | > 100 µM (inactive) | > 100 µM (inactive) | > 100 µM (inactive) | > 100 µM (inactive) | > 100 µM (inactive) | > 100 µM (inactive) | > 100 µM (inactive) | > 100 µM (inactive) | > 100 µM (inactive) | > 100 µM (inactive) | > 100 µM (inactive) | > 100 |  | > 100 µM (inactive) |
| CC(C)CC(CNC(Cc1ccc(Cl)cc1)C(N)=O)NC(=O)C(Cc1c[nH]cn1)NC(=O)CNC(=O)C(NC(=O)C(C)NC(=O)C(Cc1c[nH]c2ccccc12)NC(=O)C(CCC(=O)O)NC(=O)C(N)Cc1ccccc1)C(C)C (stereo unspecified) | > 133 µM (inactive) | > 133 µM (inactive) | > 133 µM (inactive) |  | > 133 µM (inactive) | > 133 µM (inactive) | > 133 µM (inactive) |  | > 133 µM (inactive) | > 133 µM (inactive) |  | > 133 µM (inactive) | > 133 µM (inactive) | > 133 µM (inactive) | > 133 µM (inactive) | > 133 | > 133 µM (inactive) | > 133 µM (inactive) |
| O=c1c2cccnc2ncn1CCCN1CCOCC1 | > 100 µM (inactive) | > 100 µM (inactive) | > 100 µM (inactive) | > 100 µM (inactive) | > 100 µM (inactive) | > 10 µM (inactive) | > 100 µM (inactive) | > 100 µM (inactive) | > 100 µM (inactive) | > 100 µM (inactive) | > 100 µM (inactive) | > 10 µM (inactive) |  | > 100 µM (inactive) | > 100 µM (inactive) |  | > 100 µM (inactive) |  |
| CN(C)CCn1c2c3ccccc3ccc2c2oc(=O)c3ccccc3c21 |  | 9.04 µM (inactive) | 0.895 µM (active) | 9.86 µM (inactive) | 2.5 µM (inactive) | 17.9 µM (inactive) | 5.68 µM (inactive) |  | 3.88 µM (inactive) | 7.35 µM (inactive) |  | 2.62 µM (inactive) | 4.83 µM (inactive) | 12.6 µM (inactive) | 2.36 µM (inactive) | 8.34 | 2.78 µM (inactive) | 4.35 µM (inactive) |
